The results in this text go back to patent US10774052B2, “Heteroaryl compounds and uses thereof” (Celgene CAR LLC, priority 2013, dated 2020).

One test concerns pFGFR4 in MDA-MB-453 cells. Put plainly: FGFR4 signaling, pFGFR4 (MDA); Western blot (Method A), MSD (Method B), ELISA (Method C). The following applies: Homo sapiens, MDA-MB-453, MDA-MB-453 cells; Method B (MSD) for signaling EC50 determination. It is filed as cell-based. (In general: Immunoblotting shows a protein as a band on a membrane.)
Regarding `C=CC(=O)Nc1ccccc1Nc1ncc2c(n1)NC(=O)N(c1cc(OC)cc(OC)c1)C2` [Compound I-125], the concentration for a half-maximal effect (EC50) (commonly the concentration giving half of the maximal effect) lay in the range of 501 to 999 nM.

Take `C=CC(=O)NC1COCC1Nc1ncc2c(n1)N(C)C(=O)N(c1c(Cl)c(OC)cc(OC)c1Cl)C2` (stereo not drawn) [Compound I-126]: the EC50 is < 100 nM.

Compound `C=CC(=O)NC1CCCCC1Nc1ncc2c(n1)N(CCF)C(=O)N(c1cc(OC)cc(OC)c1Cl)C2` (racemic) [Compound I-111] came in with an EC50 of 501 to 999 nM.

Turning to `C=CC(=O)Nc1cc(N(C)CCOC)ccc1Nc1ncc2c(n1)N(Cc1ccccc1)C(=O)N(c1cc(OC)cc(OC)c1)C2` [Compound I-13], the 50% effective concentration (EC50) lay within 101 to 500 nM.

As for `C=CC(=O)NC1CN(C)CC1Nc1ncc2c(n1)N(C)C(=O)N(c1c(Cl)c(OC)cc(OC)c1Cl)C2` (racemic) [Compound I-138], the EC50 lay in the range of 101 to 500 nM.

Regarding `C=CC(=O)NC1CCCCC1Nc1ncc2c(n1)N(C)C(=O)N(c1cc(OC)cc(OC)c1Cl)C2` (racemic) [Compound I-76], the 50% effective concentration (EC50) was in the range of 501 to 999 nM.

`C=CC(=O)NC1CCCCC1Nc1ncc2c(n1)N(CC(F)F)C(=O)N(c1c(Cl)c(OC)cc(OC)c1Cl)C2` (racemic) [Compound I-105] had a 50% effective concentration (EC50) of 101 to 500 nM.

As to `C=CC(=O)NC1CCCCC1Nc1ncc2c(n1)N(C1CC1)C(=O)N(c1c(Cl)c(OC)cc(OC)c1Cl)C2` (racemic) [Compound I-68], the EC50 lay within 101 to 500 nM.

For `C=CC(=O)NC1CCCCC1Nc1ncc2c(n1)N(CCF)C(=O)N(c1c(Cl)c(OC)cc(OC)c1Cl)C2` (racemic) [Compound I-106], the EC50 is 101 to 500 nM.

The test is the same for the next values; noted with them: Homo sapiens; MDA-MB-453 cells; Method B (MSD) for signaling EC50 determination.
As for `C=CC(=O)NC1CCCCC1Nc1ncc2c(n1)N(Cc1ccnc(N)c1)C(=O)N(c1c(Cl)c(OC)cc(OC)c1Cl)C2` (stereo not drawn) [Compound I-133], the EC50 is < 100 nM.

Turning to `C=CC(=O)Nc1cc(N(C)CCOC)ccc1Nc1ncc2c(n1)N(C)C(=O)N(c1cc(OC)cc(OC)c1)C2` [Compound I-21], the concentration for a half-maximal effect (EC50) was < 100 nM.

In turn, `C=CC(=O)NC1CC=CCC1Nc1ncc2c(n1)N(C)C(=O)N(c1c(Cl)c(OC)cc(OC)c1Cl)C2` (racemic) [Compound I-113] showed a concentration giving a half-maximal response (EC50) of 101 to 500 nM.

In turn, `C=CC(=O)Nc1cc(C)ccc1Nc1ncc2c(n1)N(C)C(=O)N(c1cc(OC)cc(OC)c1)C2` [Compound I-41] showed a 50% effective concentration (EC50) of 101 to 500 nM.

The compound `C=CC(=O)Nc1ccccc1Nc1ncc2c(n1)N(C)C(=O)N(c1cc(OC)cc(OC)c1)C2` [Compound I-5] came in with a 50% effective concentration (EC50) of 101 to 500 nM.

Compound `C=CC(=O)Nc1ccccc1Nc1ncc2c(n1)N(C1CCCN(C(=O)OC(C)(C)C)C1)C(=O)N(c1cc(OC)cc(OC)c1)C2` (stereo not drawn) [Compound I-36] came in with an EC50 of 101 to 500 nM.

`C=CC(=O)Nc1ccccc1Nc1ncc2c(n1)N(C)C(=O)N(c1c(Cl)cccc1Cl)C2` [Compound I-83] came in with a concentration giving a half-maximal response (EC50) of 101 to 500 nM.

Turning to `C=CC(=O)Nc1ccccc1Nc1ncc2c(n1)N(CCOC)C(=O)N(c1cc(OC)cc(OC)c1)C2` [Compound I-59], the EC50 was 101 to 500 nM.

With `C=CC(=O)Nc1ccccc1Nc1ncc2c(n1)N(CC#N)C(=O)N(c1cc(OC)cc(OC)c1)C2` [Compound I-48], the EC50 was in the range of 101 to 500 nM.

In turn, `C=CC(=O)Nc1ccccc1Nc1ncc2c(n1)N(Cc1cscn1)C(=O)N(c1cc(OC)cc(OC)c1)C2` [Compound I-64] had an EC50 of 101 to 500 nM.

With `C=CC(=O)Nc1cc(-c2nnn(C)n2)ccc1Nc1ncc2c(n1)N(C)C(=O)N(c1cc(OC)cc(OC)c1)C2` [Compound I-146], the EC50 lay in the range of 101 to 500 nM.

Take `C=CC(=O)Nc1ccccc1Nc1ncc2c(n1)N(CC(F)F)C(=O)N(c1cc(OC)cc(OC)c1)C2` [Compound I-99]: the EC50 lay in the range of 101 to 500 nM.

`C=CC(=O)Nc1ccccc1Nc1ncc2c(n1)N(C)C(=O)N(c1c(F)c(OC)cc(OC)c1F)C2` [Compound I-131]: the EC50 is < 100 nM.

Compound `C=CC(=O)Nc1ccccc1Nc1ncc2c(n1)N(C1COC1)C(=O)N(c1cc(OC)cc(OC)c1)C2` [Compound I-88] came in with an EC50 of 101 to 500 nM.

Take `C=CC(=O)Nc1ccccc1Nc1ncc2c(n1)N(CC1CC1)C(=O)N(c1cc(OC)cc(OC)c1Cl)C2` [Compound I-100]: the EC50 is < 100 nM.

A further test has as its system pFGFR4 in Huh7 cells. Put plainly: FGFR4 signaling, pFGFR4 (Huh); MSD (Method B). It is filed as cell-based. The following applies: Homo sapiens, Huh-7; Huh7 cells; read-out: Signaling EC50 (nM) pFGFR4 (Huh).
Turning to `C=CC(=O)NC1CCCCC1Nc1ncc2c(n1)N(Cc1ccnc(N)c1)C(=O)N(c1c(Cl)c(OC)cc(OC)c1Cl)C2` (stereo not drawn) [Compound I-133], the half-maximal effective concentration (EC50) was < 100 nM.

For the compound `C=CC(=O)Nc1cc(N(C)CCOC)ccc1Nc1ncc2c(n1)N(C)C(=O)N(c1cc(OC)cc(OC)c1)C2` [Compound I-21], the half-maximal effective concentration (EC50) is < 100 nM.

As to `C=CC(=O)NC1CC=CCC1Nc1ncc2c(n1)N(C)C(=O)N(c1c(Cl)c(OC)cc(OC)c1Cl)C2` (racemic) [Compound I-113], the EC50 was 101 to 500 nM.

`C=CC(=O)Nc1cc(C)ccc1Nc1ncc2c(n1)N(C)C(=O)N(c1cc(OC)cc(OC)c1)C2` [Compound I-41]: the half-maximal effective concentration (EC50) lay within 101 to 500 nM.

With `C=CC(=O)Nc1ccccc1Nc1ncc2c(n1)N(C)C(=O)N(c1cc(OC)cc(OC)c1)C2` [Compound I-5], the EC50 lay in the range of 101 to 500 nM.

In the case of `C=CC(=O)Nc1ccccc1Nc1ncc2c(n1)N(C1CCCN(C(=O)OC(C)(C)C)C1)C(=O)N(c1cc(OC)cc(OC)c1)C2` (stereo not drawn) [Compound I-36], the 50% effective concentration (EC50) was 101 to 500 nM.

Regarding `C=CC(=O)Nc1ccccc1Nc1ncc2c(n1)N(C)C(=O)N(c1c(Cl)cccc1Cl)C2` [Compound I-83], the concentration giving a half-maximal response (EC50) lay within 101 to 500 nM.

As to `C=CC(=O)Nc1ccccc1Nc1ncc2c(n1)N(CCOC)C(=O)N(c1cc(OC)cc(OC)c1)C2` [Compound I-59], the concentration giving a half-maximal response (EC50) fell in the range of 101 to 500 nM.

As to `C=CC(=O)Nc1ccccc1Nc1ncc2c(n1)N(CC#N)C(=O)N(c1cc(OC)cc(OC)c1)C2` [Compound I-48], the EC50 is 101 to 500 nM.

For the compound `C=CC(=O)Nc1ccccc1Nc1ncc2c(n1)NC(=O)N(c1cc(OC)cc(OC)c1)C2` [Compound I-125], the concentration for a half-maximal effect (EC50) is > 1000 nM.

For `C=CC(=O)Nc1ccccc1Nc1ncc2c(n1)N(Cc1cscn1)C(=O)N(c1cc(OC)cc(OC)c1)C2` [Compound I-64], the 50% effective concentration (EC50) is 101 to 500 nM.

As to `C=CC(=O)Nc1cc(-c2nnn(C)n2)ccc1Nc1ncc2c(n1)N(C)C(=O)N(c1cc(OC)cc(OC)c1)C2` [Compound I-146], the concentration for a half-maximal effect (EC50) fell in the range of 101 to 500 nM.

For the compound `C=CC(=O)Nc1ccccc1Nc1ncc2c(n1)N(CC(F)F)C(=O)N(c1cc(OC)cc(OC)c1)C2` [Compound I-99], the EC50 was 101 to 500 nM.

For `C=CC(=O)NC1COCC1Nc1ncc2c(n1)N(C)C(=O)N(c1c(Cl)c(OC)cc(OC)c1Cl)C2` (stereo not drawn) [Compound I-126], the EC50 was < 100 nM.

Take `C=CC(=O)Nc1ccccc1Nc1ncc2c(n1)N(C)C(=O)N(c1c(F)c(OC)cc(OC)c1F)C2` [Compound I-131]: the concentration giving a half-maximal response (EC50) is < 100 nM.

Turning to `C=CC(=O)Nc1ccccc1Nc1ncc2c(n1)N(C1COC1)C(=O)N(c1cc(OC)cc(OC)c1)C2` [Compound I-88], the EC50 is 101 to 500 nM.

Regarding `C=CC(=O)Nc1ccccc1Nc1ncc2c(n1)N(CC1CC1)C(=O)N(c1cc(OC)cc(OC)c1Cl)C2` [Compound I-100], the EC50 is < 100 nM.

Regarding `C=CC(=O)NC1CCCCC1Nc1ncc2c(n1)N(CCF)C(=O)N(c1cc(OC)cc(OC)c1Cl)C2` (racemic) [Compound I-111], the half-maximal effective concentration (EC50) was > 1000 nM.

In the case of `C=CC(=O)Nc1cc(N(C)CCOC)ccc1Nc1ncc2c(n1)N(Cc1ccccc1)C(=O)N(c1cc(OC)cc(OC)c1)C2` [Compound I-13], the 50% effective concentration (EC50) fell in the range of 101 to 500 nM.

Consider `C=CC(=O)NC1CN(C)CC1Nc1ncc2c(n1)N(C)C(=O)N(c1c(Cl)c(OC)cc(OC)c1Cl)C2` (racemic) [Compound I-138], for which the concentration giving a half-maximal response (EC50) fell in the range of 101 to 500 nM.

Regarding `C=CC(=O)NC1CCCCC1Nc1ncc2c(n1)N(C)C(=O)N(c1cc(OC)cc(OC)c1Cl)C2` (racemic) [Compound I-76], the EC50 is > 1000 nM.

Turning to `C=CC(=O)NC1CCCCC1Nc1ncc2c(n1)N(CC(F)F)C(=O)N(c1c(Cl)c(OC)cc(OC)c1Cl)C2` (racemic) [Compound I-105], the concentration for a half-maximal effect (EC50) is 101 to 500 nM.

Consider `C=CC(=O)NC1CCCCC1Nc1ncc2c(n1)N(C1CC1)C(=O)N(c1c(Cl)c(OC)cc(OC)c1Cl)C2` (racemic) [Compound I-68], for which the half-maximal effective concentration (EC50) was in the range of 501 to 999 nM.

As for `C=CC(=O)NC1CCCCC1Nc1ncc2c(n1)N(CCF)C(=O)N(c1c(Cl)c(OC)cc(OC)c1Cl)C2` (racemic) [Compound I-106], the EC50 lay within 101 to 500 nM.
